Data: patent publication US20250388553A1 (Incyte Corporation, priority 2018, published 2025)
Where a name gives a salt, the structure may show the parent alone. Read-outs that look alike come from different tables or passages of the source.

Legend:
[1] = target: PI3Kγ (p110γ) Recombinant Human Protein (Homo sapiens (Human), UniProt P48736); assay: PI3K-γ scintillation proximity assay; assay type: biochemical
[2] = target: PI3Kδ (p1106/p85a) Recombinant Human Protein (Homo sapiens (Human), UniProt O00329); assay: PI3Kδ scintillation proximity assay; assay type: biochemical
Chain of PI3Kδ (p1106/p85a) Recombinant Human Protein (O00329 whole entry): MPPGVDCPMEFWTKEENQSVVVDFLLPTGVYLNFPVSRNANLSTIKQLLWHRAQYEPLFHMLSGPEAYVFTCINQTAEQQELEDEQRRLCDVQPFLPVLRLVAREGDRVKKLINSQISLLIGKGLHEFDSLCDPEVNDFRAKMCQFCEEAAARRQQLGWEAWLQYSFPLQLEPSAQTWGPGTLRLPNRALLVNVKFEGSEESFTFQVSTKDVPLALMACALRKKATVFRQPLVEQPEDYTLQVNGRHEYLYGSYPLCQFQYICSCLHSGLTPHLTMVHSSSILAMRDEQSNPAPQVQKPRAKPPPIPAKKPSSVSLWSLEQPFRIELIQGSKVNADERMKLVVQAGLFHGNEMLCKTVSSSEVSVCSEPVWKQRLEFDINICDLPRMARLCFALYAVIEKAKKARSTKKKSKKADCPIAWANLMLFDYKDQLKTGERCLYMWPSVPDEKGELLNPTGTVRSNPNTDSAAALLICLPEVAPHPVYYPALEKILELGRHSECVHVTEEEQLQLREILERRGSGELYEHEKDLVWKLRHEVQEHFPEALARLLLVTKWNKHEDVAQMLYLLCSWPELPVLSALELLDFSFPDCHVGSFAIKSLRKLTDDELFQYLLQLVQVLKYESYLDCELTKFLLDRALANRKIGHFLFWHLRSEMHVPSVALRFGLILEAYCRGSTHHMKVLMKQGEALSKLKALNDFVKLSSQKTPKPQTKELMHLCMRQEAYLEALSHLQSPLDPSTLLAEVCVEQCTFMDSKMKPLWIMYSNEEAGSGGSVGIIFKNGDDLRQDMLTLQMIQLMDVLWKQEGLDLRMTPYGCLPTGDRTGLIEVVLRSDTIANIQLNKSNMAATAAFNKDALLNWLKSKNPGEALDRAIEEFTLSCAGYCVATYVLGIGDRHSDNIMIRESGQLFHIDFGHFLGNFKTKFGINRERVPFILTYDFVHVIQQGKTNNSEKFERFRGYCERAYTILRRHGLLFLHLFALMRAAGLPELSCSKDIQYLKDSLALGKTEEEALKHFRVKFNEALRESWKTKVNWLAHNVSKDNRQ
Chain of PI3Kδ (p1106/p85a) Recombinant Human Protein (P27986 whole entry partner): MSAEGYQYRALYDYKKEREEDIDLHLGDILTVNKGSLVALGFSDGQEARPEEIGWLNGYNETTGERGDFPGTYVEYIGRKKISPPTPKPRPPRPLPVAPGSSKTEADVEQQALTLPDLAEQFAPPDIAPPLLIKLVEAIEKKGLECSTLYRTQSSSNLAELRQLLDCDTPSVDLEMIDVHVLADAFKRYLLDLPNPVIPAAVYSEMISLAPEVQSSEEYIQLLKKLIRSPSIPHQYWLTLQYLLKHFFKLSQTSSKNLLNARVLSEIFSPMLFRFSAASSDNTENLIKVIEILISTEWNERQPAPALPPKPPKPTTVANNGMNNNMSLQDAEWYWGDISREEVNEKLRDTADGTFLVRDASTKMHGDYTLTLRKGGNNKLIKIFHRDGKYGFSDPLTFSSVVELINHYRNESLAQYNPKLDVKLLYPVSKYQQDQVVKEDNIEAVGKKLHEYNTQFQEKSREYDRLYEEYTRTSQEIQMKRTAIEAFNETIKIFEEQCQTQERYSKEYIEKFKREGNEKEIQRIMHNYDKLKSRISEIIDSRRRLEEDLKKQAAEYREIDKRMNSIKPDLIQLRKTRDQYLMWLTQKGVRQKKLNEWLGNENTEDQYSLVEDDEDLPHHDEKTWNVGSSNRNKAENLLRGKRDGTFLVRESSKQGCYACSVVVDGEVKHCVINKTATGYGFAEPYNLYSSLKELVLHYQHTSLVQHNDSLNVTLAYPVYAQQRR

[3] = test system: Phosphorylated Ribosomal Protein S6 (RPS6) in THP-1 cells; assay: THP-1 RPS6 ELISA assay; assay type: cell-based, Human; conditions: Homo sapiens
Source text: Example A. THP-1 RPS6 ELISA Assay
To measure the Phosphorylated Ribosomal Protein S6 (RPS6) in cell lysates, THP-1 cells (Human Acute Monocytic Leukemia) are purchased from ATCC (Manassas, VA) and maintained in RPMI with 10% FBS (Gibco/Life Technologies, Carlsbad, CA). For the assay, THP-1 cells are serum starved overnight in RPMI, then plated in RPMI (2×10^5 cells/well in […]) into 96-well flat-bottom tissue culture treated plates (Corning, Corning, NY), in the presence or absence of a concentration range of test compounds. Covered plates are incubated for 2 hours at 37° C., 5% CO2 then treated with or without 10 nM MCP-1(MYBioSource, San Diego, CA) for 15 minutes at 37° C., 5% CO2. Plates are centrifuged at 1600 RPM and supernatants are removed. Cells are lysed in Lysis Buffer (Cell Signaling, Danvers, MA) with Protease Inhibitor (Calbiochem/EMD, Germany), PMSF (Sigma, St Louis MO), HALTS (Thermo Fisher, Rockford, IL) for 30 min on wet ice. Cell lysates are frozen at −80° C. before testing. The lysates are tested in the Human/Mouse/Rat Phospho-RPS6 ELISA (R&D Systems, Inc. Minn, MN). The plate is measured using a microplate reader (SpectraMax M5—Molecular Devices, LLC Sunnyvale, CA) set to 450 nm with a wavelength correction of 540. IC50 determination is performed by fitting the curve of inhibitor percent inhibition versus the log of the inhibitor concentration using the GraphPad Prism 5.0 software.
The compounds of the Examples were tested in the assays described in Examples A, B and C and found to have the IC50s are shown in Tables A1, A2, A3 and A4.

[4] = Table A4, scintillation proximity assay, recombinant human p110γ
[5] = Table A4, scintillation proximity assay, recombinant human PI3Kδ
[6] = Table A4, THP-1 cells, 10 nM MCP-1, phospho-RPS6 ELISA, read-out: PI3Kγ_THP1_RPS6_ELISA IC50

Chain of PI3Kγ (p110γ) Recombinant Human Protein (P48736 whole entry): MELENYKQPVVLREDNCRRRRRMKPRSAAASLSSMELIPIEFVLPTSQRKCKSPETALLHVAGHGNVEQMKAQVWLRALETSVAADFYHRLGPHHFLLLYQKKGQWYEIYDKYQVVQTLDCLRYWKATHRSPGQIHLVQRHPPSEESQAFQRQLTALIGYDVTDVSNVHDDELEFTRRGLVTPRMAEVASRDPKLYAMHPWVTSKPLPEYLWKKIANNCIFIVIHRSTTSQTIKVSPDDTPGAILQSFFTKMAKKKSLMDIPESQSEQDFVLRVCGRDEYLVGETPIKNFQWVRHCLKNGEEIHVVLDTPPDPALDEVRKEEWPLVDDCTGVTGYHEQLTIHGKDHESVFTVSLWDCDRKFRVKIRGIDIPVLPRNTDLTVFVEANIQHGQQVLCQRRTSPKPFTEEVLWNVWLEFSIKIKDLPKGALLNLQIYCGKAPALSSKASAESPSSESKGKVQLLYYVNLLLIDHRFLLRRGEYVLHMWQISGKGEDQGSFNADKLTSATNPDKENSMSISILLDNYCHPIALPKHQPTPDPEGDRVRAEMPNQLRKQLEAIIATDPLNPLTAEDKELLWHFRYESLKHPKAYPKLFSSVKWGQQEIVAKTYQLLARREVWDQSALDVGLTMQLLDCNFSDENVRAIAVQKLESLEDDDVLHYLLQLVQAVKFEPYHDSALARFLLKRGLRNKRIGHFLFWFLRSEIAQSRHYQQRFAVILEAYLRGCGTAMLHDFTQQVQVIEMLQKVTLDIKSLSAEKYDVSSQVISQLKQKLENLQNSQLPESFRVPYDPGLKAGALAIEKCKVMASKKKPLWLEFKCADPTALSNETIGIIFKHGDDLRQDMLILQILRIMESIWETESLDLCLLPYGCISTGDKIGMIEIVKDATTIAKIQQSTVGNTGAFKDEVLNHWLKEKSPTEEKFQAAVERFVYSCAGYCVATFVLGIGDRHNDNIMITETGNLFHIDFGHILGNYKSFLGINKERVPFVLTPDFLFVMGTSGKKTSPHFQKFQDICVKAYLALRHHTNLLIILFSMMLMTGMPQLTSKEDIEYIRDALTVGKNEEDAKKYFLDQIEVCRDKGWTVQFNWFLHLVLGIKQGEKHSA

SMILES	IC50 [1, 4]	IC50 [2, 5]	IC50 [3, 6]	IC50 [1]	IC50 [2]	IC50 ([3]; THP-1, read-out: PI3Kγ_THP1_RPS6_ELISA IC50 (nM))
Cc1ccc(C(O)(C(N)=O)C(F)(F)F)cc1-c1cnc(N)c(N2CCN(C3CC3)C(=O)C2)n1 (stereo not drawn) [Example 112, 2-(3-(5-amino-6-(4-cyclopropyl-3-oxopiperazin-1-yl)pyrazin-2-yl)-4-methylphenyl)-3,3,3-trifluoro-2-hydroxypropanamide Trifluoroacetate]	< 0.1 µM	0.1 to 0.5 µM	100 to 500 nM			
Cc1ccc(C(O)(C(N)=O)C(F)(F)F)cc1-c1cnc(N)c(N2CCN(C(C)(C)C)C(=O)C2)n1 (stereo not drawn) [Example 113, 2-(3-(5-amino-6-(4-tert-butyl-3-oxopiperazin-1-yl)pyrazin-2-yl)-4-methylphenyl)-3,3,3-trifluoro-2-hydroxypropanamide trifluoroacetate]	< 0.1 µM	0.1 to 0.5 µM	100 to 500 nM			
Cc1ccc(C(O)(C(N)=O)C(F)(F)F)cc1-c1cnc(N)c(N2CCN(c3ccccc3C)CC2)n1 (stereo not drawn) [Example 118, 2-(3-(5-amino-6-(4-o-tolylpiperazin-1-yl)pyrazin-2-yl)-4-methylphenyl)-3,3,3-trifluoro-2-hydroxypropanamide trifluoroacetate]	< 0.1 µM	0.1 to 0.5 µM	500 to 1000 nM			
Cc1ccc(C(O)(C(N)=O)C(F)(F)F)cc1-c1cnc(N)c(N2CCN(c3ccc(C#N)cc3)CC2)n1 (stereo not drawn) [Example 123, 2-(3-(5-amino-6-(4-(4-cyanophenyl)piperazin-1-yl)pyrazin-2-yl)-4-methylphenyl)-3,3,3-trifluoro-2-hydroxypropanamide trifluoroacetate]	< 0.1 µM	< 0.1 µM	100 to 500 nM			
Cc1ccc(C(O)(C(N)=O)C(F)(F)F)cc1-c1cnc(N)c(N2CC(=O)N(c3ccc(O)cc3)[C@@H](CO)C2)n1 (stereo partly drawn) [Example 124, 2-(3-(5-amino-6-((R)-3-(hydroxymethyl)-4-(4-hydroxyphenyl)-5-oxopiperazin-1-yl)pyrazin-2-yl)-4-methylphenyl)-3,3,3-trifluoro-2-hydroxypropanamide trifluoroacetate]		0.1 to 0.5 µM	500 to 1000 nM	< 0.1 µM		
Cc1ccc(C(O)(C(N)=O)C(F)(F)F)cc1-c1cnc(N)c(N2CCN(CCC#N)CC2)n1 (stereo not drawn) [Example 125, 2-(3-(5-amino-6-(4-(2-cyanoethyl)piperazin-1-yl)pyrazin-2-yl)-4-methylphenyl)-3,3,3-trifluoro-2-hydroxypropanamide trifluoroacetate]				< 0.1 µM	< 0.1 µM	100 to 500 nM
CCOc1ccccc1N1CCN(c2nc(-c3cc(C(O)(C(N)=O)C(F)(F)F)ccc3C)cnc2N)CC1 (stereo not drawn) [Example 129, 2-(3-(5-amino-6-(4-(2-ethoxyphenyl)piperazin-1-yl)pyrazin-2-yl)-4-methylphenyl)-3,3,3-trifluoro-2-hydroxypropanamide trifluoroacetate]	< 0.1 µM	0.1 to 0.5 µM	500 to 1000 nM			
